Reference: ChEMBL document CHEMBL1144249, “Identification of a novel class of androgen receptor antagonists based on the bicyclic-1H-isoindole-1,3(2H)-dione nucleus” (Bioorg Med Chem Lett, 2005)

Assays:
Androgen receptor [1] = target: T1, Androgen receptor (Homo sapiens, UniProt P10275, T878A)
Description: Inhibition of T877A androgen receptor of human prostate cancer cells in reporter gene assay

Androgen receptor [2] = target: T1, Androgen receptor; test: Inhibition of [3H]-DHT binding to T877A androgen receptor of LNCaP cells
Androgen receptor [3] = target: T2, Androgen receptor (Homo sapiens, UniProt P10275)
T2 sequence (P10275 whole entry): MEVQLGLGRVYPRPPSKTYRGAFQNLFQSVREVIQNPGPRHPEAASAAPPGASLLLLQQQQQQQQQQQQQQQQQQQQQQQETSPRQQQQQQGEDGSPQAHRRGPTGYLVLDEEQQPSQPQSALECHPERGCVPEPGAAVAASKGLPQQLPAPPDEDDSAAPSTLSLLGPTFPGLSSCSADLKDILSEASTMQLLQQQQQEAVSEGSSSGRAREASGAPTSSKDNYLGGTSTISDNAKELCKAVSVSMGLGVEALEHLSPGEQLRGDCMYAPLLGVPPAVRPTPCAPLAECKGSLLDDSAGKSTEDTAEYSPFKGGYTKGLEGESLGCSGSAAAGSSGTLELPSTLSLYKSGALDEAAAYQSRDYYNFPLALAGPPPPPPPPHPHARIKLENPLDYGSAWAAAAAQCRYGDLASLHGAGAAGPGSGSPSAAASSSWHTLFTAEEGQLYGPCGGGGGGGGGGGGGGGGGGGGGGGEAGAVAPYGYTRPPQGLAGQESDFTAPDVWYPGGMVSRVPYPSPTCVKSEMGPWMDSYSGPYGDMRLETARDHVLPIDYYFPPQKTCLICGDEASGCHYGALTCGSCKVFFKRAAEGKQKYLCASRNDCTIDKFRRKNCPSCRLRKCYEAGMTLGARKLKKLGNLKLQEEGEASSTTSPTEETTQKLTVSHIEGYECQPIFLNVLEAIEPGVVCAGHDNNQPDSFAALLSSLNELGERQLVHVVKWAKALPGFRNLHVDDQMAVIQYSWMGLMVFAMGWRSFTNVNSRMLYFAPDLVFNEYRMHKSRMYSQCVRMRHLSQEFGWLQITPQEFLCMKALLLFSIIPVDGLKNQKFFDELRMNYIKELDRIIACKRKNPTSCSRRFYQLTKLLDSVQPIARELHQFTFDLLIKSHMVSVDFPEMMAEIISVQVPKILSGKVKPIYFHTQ
Description: Inhibition of human androgen receptor of breast carcinoma MDA-453 cells in reporter gene assay

Androgen receptor [4] = target: T2, Androgen receptor; test: Inhibition of [3H]DHT binding to androgen receptor of MDA-453 cells
Androgen receptor [5] = target: Androgen receptor (Homo sapiens, UniProt P10275, L702H/T878A); assay type: functional, cell-based; conditions: mdamb-pca2b
Sequence of Androgen receptor (Homo sapiens, UniProt P10275, L702H/T878A) (P10275 whole entry L702H/T878A): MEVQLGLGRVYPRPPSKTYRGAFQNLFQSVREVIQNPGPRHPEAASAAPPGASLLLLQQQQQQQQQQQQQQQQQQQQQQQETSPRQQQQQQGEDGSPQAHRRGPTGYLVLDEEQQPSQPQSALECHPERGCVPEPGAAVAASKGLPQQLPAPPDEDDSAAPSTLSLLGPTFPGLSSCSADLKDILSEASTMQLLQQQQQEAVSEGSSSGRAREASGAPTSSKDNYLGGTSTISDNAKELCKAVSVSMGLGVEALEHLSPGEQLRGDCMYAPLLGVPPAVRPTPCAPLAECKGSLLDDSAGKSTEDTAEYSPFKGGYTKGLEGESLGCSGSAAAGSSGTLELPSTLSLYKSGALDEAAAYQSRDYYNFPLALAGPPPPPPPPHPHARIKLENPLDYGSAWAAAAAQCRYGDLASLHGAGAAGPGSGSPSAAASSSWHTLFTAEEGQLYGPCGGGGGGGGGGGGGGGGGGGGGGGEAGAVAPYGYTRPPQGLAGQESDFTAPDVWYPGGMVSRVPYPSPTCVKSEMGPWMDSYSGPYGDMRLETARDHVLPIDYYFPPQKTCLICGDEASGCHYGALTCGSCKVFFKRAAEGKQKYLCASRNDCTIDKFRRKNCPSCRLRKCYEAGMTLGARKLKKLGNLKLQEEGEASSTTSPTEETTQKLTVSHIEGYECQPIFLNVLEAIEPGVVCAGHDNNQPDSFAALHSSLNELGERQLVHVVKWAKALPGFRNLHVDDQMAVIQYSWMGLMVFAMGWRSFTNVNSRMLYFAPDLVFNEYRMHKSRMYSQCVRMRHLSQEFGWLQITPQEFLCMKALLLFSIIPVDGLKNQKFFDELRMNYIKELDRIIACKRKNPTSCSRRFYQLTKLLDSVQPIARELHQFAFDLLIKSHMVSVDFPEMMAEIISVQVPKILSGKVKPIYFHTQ

Androgen receptor [6] = target: T1, Androgen receptor; test: Activation of T877A androgen receptor of human prostate cancer LNCap cells in reporter gene assay; assay type: functional, cell-based

T1 sequence (P10275 whole entry T878A): as the sequence (P10275 whole entry L702H/T878A) above, with H702L counted along it

Structure (SMILES) | IC50 (Androgen receptor [1]) [nM] | Ki (Androgen receptor [2]) [nM] | IC50 (Androgen receptor [3]) [nM] | Ki (Androgen receptor [4]) [nM] | IC50 (Androgen receptor [5]) | Agonist activity (qualitative) (Androgen receptor [6]) | Ki (Androgen receptor [2]; lncap) [nM] | IC50 (Androgen receptor [6])
O=C1[C@@H]2C3C=CC(C3)[C@@H]2C(=O)N1c1cccc(C(F)(F)F)c1 | 35 | 7 | 744 | 632 |  |  |  | 
O=C1[C@@H]2C3C=CC(C3)[C@@H]2C(=O)N1c1cc(Cl)cc(Cl)c1 | 41 | 6 | 307 | 158 |  |  |  | 
O=C1[C@@H]2C3C=CC(C3)[C@@H]2C(=O)N1c1cc(C(F)(F)F)cc(C(F)(F)F)c1 | 72 | 24 | 1750 | 401 |  |  |  | 
O=C1[C@@H]2C3C=CC(C3)[C@@H]2C(=O)N1c1ccc(F)c(Cl)c1 | 33 | 2 | 517 |  |  |  |  | 
O=C1[C@@H]2C3C=CC(C3)[C@@H]2C(=O)N1c1ccc([N+](=O)[O-])c2ccccc12 |  | 0.5 | > 5 | 1 | Agonist | Agonist |  | 
O=C1[C@@H]2C3C=CC(C3)[C@@H]2C(=O)N1c1ccc2ccccc2c1 | 84 | 11 | 1210 | 284 |  |  |  | 
O=C1[C@@H]2C3C=CC(C3)[C@@H]2C(=O)N1c1ccc2cccnc2c1 | 52 | 13 | 1040 |  |  |  |  | 
O=C1[C@@H]2C3C=CC(C3)[C@@H]2C(=O)N1c1ccc([N+](=O)[O-])cc1 | 30 | 12 | 664 | 192 |  |  |  | 
Cc1cc(N2C(=O)[C@@H]3C4C=CC(C4)[C@@H]3C2=O)ccc1Br |  | 3.6 | 220 | 125 | Agonist | Agonist |  | 
O=C1[C@@H]2C3CCC(C3)[C@@H]2C(=O)N1c1ccc2ccccc2c1 | 84 | 11 | 1200 |  |  |  |  | 
O=C1[C@@H]2C3C=CC(C3)[C@@H]2C(=O)N1c1ccc(Br)c(C(F)(F)F)c1 |  | 0.6 | 146 | 46 | Agonist | Agonist |  | 
Cc1ccc(N2C(=O)[C@@H]3C4C=CC(C4)[C@@H]3C2=O)cc1C | 10 | 3.4 | 2010 | 400 |  |  |  | 
O=C1[C@@H]2C3C=CC(C3)[C@@H]2C(=O)N1c1ccc([N+](=O)[O-])c(C(F)(F)F)c1 |  | 5 | 119 | 55 | Agonist | Agonist |  | 
O=C1[C@@H]2C3C=CC(C3)[C@@H]2C(=O)N1c1ccc(O)c2ncccc12 | 1790 | 32 | 418 | 162 |  |  |  | 
O=C1[C@@H]2C3CCC(C3)[C@@H]2C(=O)N1c1cccc(C(F)(F)F)c1 (stereo in doubt; 12) | 7 | 3.4 | 127 | 319 |  |  |  | 
O=C1[C@@H]2C3CCC(C3)[C@@H]2C(=O)N1c1cccc(C(F)(F)F)c1 (stereo in doubt; 13) | 12 | 2 | 317 |  |  |  |  | 
O=C1[C@@H]2C3CCC(C3)[C@@H]2C(=O)N1c1ccc([N+](=O)[O-])c(C(F)(F)F)c1 (stereo in doubt; 15) |  | 2 | 12 | 5 | Agonist | Agonist |  | 
O=C1[C@@H]2C3CCC(C3)[C@@H]2C(=O)N1c1ccc([N+](=O)[O-])c(C(F)(F)F)c1 (stereo in doubt; 16) |  |  |  |  |  |  | 2 | 
CC(C)(O)C(=O)Nc1ccc([N+](=O)[O-])c(C(F)(F)F)c1 [HYDROXYFLUTAMIDE] |  |  |  |  | Agonist |  |  | Agonist
